# Experimental data as given in patent publication US10736909B2, “Use of trehalose for treatment of neurological diseases” (JUNAXO, INC., priority 2016, dated 2020).
# Where two headings read alike, the source gives them in different places.
# Key:
# [1] = Extrapolation from animal data to human plasma exposure; details: oral, humans, 2.67 g/kg, extrapolated from rat and macaque data, read-out: trehalose plasma Cmax (estimated)
# Experimental: On a dose per body weight basis, trehalose produced very similar plasma and brain levels in rats and macaques (see FIG. 3 and Tables 6 and 7) when dosed with 2.67 g/kg/day. We also know that a trehalose dose of 2.67 g/kg/day was efficacious in the rat and non-human primate. Therefore, it is contemplated that an efficacious dose for humans includes 2.67 g/kg which is estimated to produce a trehalose plasma Cmax of ˜10000 ng/ml. From the rat data it is also clear that a dose of 0.89 g/kg will be ineffective.
# [2] = Plasma pharmacokinetics in macaques, 1 and 7 days oral administration; assay type: in vivo; details: for AUC(0-inf) / Cmax / Tmax / half-life / AUC(0-t): female, monkey, plasma, po, macaque plasma; for AUC(0-t): read-out: AUC0-24h
# Experimental: Three female macaques (3.81-4.67 kg) received trehalose (2.67 and 5.34 g/kg/day, oral gavage in sterile water) for 7 days. Plasma samples were collected pre-dose and 15 min, 30 min, 1 h, 2 h, 4 h, 6 h, 12 h and 24 h post-dose on days 1 and 7 and analysed for trehalose levels using a validated LC-MS/MS method and plasma exposure time courses (FIG. 2) and pharmacokinetic parameters were calculated (Table 7).
# [3] = Plasma, brain and CSF trehalose levels in macaques after 17 weeks administration; assay type: in vivo, cynomolgus monkeys (Macaca fascicularis); details: 2.67 g/kg/day p.o. 17 weeks; for concentration at 1 h: female, cynomolgus monkey, po, 1 h after final administration
# From the text: Twenty-five (25), female cynomolgus monkeys (Macaca fascicularis, 8.0-9.3 years of age, 3.2-4.4 kg) were split into 3 groups (n=8-9/group) and received stereotaxic injection of AAV vectors,either a vector expressing mutant A53T human alpha-synculein (AAV1/2-A53T-alpha-synuclein) or an empty vector (AAV1/2-EV), Genedetect, Auckland, New Zealand) into the substantia nigra. The A53T aSyn expressed is of the human sequence the AAV1/2-EV is a control vector of the same serotype and viral construction. Precise stereotaxic coordinates for all surgeries were calculated prior to surgery from individual monkey MRI scans. Injections containing the AAV1/2-A53T-alpha-synuclein or empty vector were made at a speed of 0.5 μl/min and a volume of 7 μl (at a viral titre of 1.7×10^12 active particles per ml) into 4 sites of each hemisphere of the substantia nigra. Commencing on the day of surgery and continuing for 17 weeks, macaques received either vehicle (sterile drinking water) or trehalose (2.67 g/kg/day) administered as a single daily administration (2.67 g/kg/day, p.o). The macaques were then killed and striatal tissue from both hemispheres was collected and analysed for dopamine and dopamine transporter (DAT) levels. Substantia nigra tissue was collected and analysed for the number of TH^+ve cells and the amount of αSYN measured. Plasma, CSF and brain (cerebellum) samples were collected and trehalose levels analysed by LC-MS/MS.
# Single plasma, brain and CSF samples were collected 1 h after the final administration of trehalose. One-hour post-dose corresponds to approximately the Tmax of orally administered trehalose in macaques. The plasma, brain and CSF trehalose levels were 2449±884 ng/ml, 129±35 ng/g and 33±9 ng/ml respectively.
# [4] = 2.67 g/kg/day, 2.67 g/kg/day p.o., Day 1
# [5] = 2.67 g/kg/day, 2.67 g/kg/day p.o., Day 7
# [6] = 5.34 g/kg/day, 5.34 g/kg/day p.o., Day 1
# [7] = 5.34 g/kg/day, 5.34 g/kg/day p.o., Day 7
smiles,measurement,setting,value
"OC[C@H]1O[C@H](O[C@H]2O[C@H](CO)[C@@H](O)[C@H](O)[C@H]2O)[C@H](O)[C@@H](O)[C@@H]1O [trehalose, (2R,3S,4S,5R,6R)-2-(Hydroxymethyl)-6-[(2R,3R,4S,5S,6R)-3,4,5-trihydroxy-6-(hydroxymethyl)oxan-2-yl]oxyoxane-3,4,5-triol]",Cmax,[1],~10000 ng/mL
same,AUC(0-inf),[2]; [4],27400 ng·h/mL
same,Cmax,[2]; [4],10900 ng/mL
same,Tmax,[2]; [4],49.8 min
same,half-life,[2]; [4],66 min
same,AUC(0-t),[2]; [4],26700 ng·h/mL
same,AUC(0-inf),[2]; [5],27400 ng·h/mL
same,Cmax,[2]; [5],9580 ng/mL
same,Tmax,[2]; [5],40.2 min
same,half-life,[2]; [5],90 min
same,AUC(0-t),[2]; [5],26000 ng·h/mL
same,AUC(0-inf),[2]; [6],80000 ng·h/mL
same,Cmax,[2]; [6],37000 ng/mL
same,Tmax,[2]; [6],40.2 min
same,half-life,[2]; [6],108 min
same,AUC(0-t),[2]; [6],78900 ng·h/mL
same,AUC(0-inf),[2]; [7],57200 ng·h/mL
same,Cmax,[2]; [7],22400 ng/mL
same,Tmax,[2]; [7],49.8 min
same,half-life,[2]; [7],138 min
same,AUC(0-t),[2]; [7],56500 ng·h/mL
same,trehalose in plasma ~8 h post-dose,"[2]; macaques, oral administration, ~8 h post-dose",No trehalose was measurable
same,correlation of trehalose level in the CSF with level in the brain,[3],significantly correlated
same,concentration at 1 h,"[3]; CSF, read-out: CSF trehalose level",33 ± 9 ng/mL
same,concentration at 1 h,"[3]; brain (cerebellum), read-out: brain trehalose level",129 ± 35 ng/g
same,concentration at 1 h,"[3]; plasma, read-out: plasma trehalose level",2450 ± 884 ng/mL
